From US11278528B2, “Activator of peroxisome proliferator-activated receptor” (Nippon Chemiphar Co., Ltd., priority 2017, dated 2022)

What was measured:
[1] = target: T1, PPARα (Homo sapiens, UniProt Q07869); assay: Measurement of agonist activity against PPARα (EnBio RCAS for PPARα kit, PPARA-CBP); type: biochemical; details: evaluation concentration 10 μM, ratio to maximal response well (GW7647 0.5 μM); for activation at 10 µM: read-out: Binding ratio (%) @ 10 μM
T1 construct: purchased Fujikura Kasei Co., Ltd. PPARA-CBP
T1 sequence (Q07869 1-468): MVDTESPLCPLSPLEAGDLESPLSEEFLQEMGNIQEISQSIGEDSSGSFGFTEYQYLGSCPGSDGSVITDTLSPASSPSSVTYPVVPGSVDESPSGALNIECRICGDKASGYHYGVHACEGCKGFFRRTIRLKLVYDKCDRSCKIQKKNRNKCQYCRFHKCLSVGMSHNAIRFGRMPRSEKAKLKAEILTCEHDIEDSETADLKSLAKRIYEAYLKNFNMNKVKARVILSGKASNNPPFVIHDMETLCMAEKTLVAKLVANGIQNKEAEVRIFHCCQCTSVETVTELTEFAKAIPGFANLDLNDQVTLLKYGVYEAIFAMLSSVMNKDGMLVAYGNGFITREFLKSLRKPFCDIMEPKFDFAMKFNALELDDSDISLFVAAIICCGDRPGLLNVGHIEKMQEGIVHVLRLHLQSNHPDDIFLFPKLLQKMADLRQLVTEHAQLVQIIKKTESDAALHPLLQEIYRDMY
Method: (1) Measurement of Agonist Activity against PPARα
For the measurement of agonist activity against PPARα, the absorbance was measured according to the kit protocol using EnBio RCAS for PPARα kit (PPARA-CBP, Fujikura Kasei Co., Ltd.). A sample was dissolved in dimethylsulfoxide and added to a 96-well plate so as to have an evaluation concentration of 10 μM. GW7647 was added to a maximal response well so as to have a concentration of 0.5 μM. Dimethylsulfoxide was added to background wells. After subtracting the absorbance of the background well from the absorbance of each sample addition well, the ratio of each sample addition well to the maximal response well was calculated to evaluate the agonist activity (Binding ratio, %) against PPARα. Note that the sample addition wells and the background wells were duplicated, and the maximal response well was quadruplicated. As a positive control, 10 μM of a known PPARα agonist; Fenofibric acid (Tokyo Chemical Industry Co., Ltd.) was used.

[2] = test system: NAFLD model rats fed with a methionine/choline-deficient (MCD) diet; assay: Non-alcoholic fatty liver disease (NAFLD) model rats induced by methionine/choline-deficient diet; type: in vivo, Wistar rats; details: for Plasma ALT as an indicator of liver damage: versus Vehicle group (FIG. 1A); for Liver TG level as an indicator of fatty liver: versus Vehicle group (FIG. 1B)
From the text: (1) Evaluation Using Non-Alcoholic Fatty Liver Disease (NAFLD) Model Rats Induced by Methionine/Choline-Deficient Diet
As a NAFLD model, rats fed with a methionine/choline-deficient (MCD) diet were used to perform experiments. The MCD diet-fed model is widely used as a model for NAFLD/NASH.
Wistar rats (male, 8 weeks old, Charles River Laboratories Japan, Inc.) were fed with an MCD diet (A02082002B, Research Diets, Inc.) for 5 weeks. From the time of feeding the above diet for 1 week, the rats were divided into a Vehicle group, a COMPOUND 2 (50 mg/kg) group, and a Fenofibrate (100 mg/kg) group so that there was no difference in body weight between the groups (n=4 in each of the groups). The Normal group was fed with an MCS diet as a control diet for the MCD diet (A02082003B, Research Diets, Inc.) for the same period. The administration volume was 10 mL/kg, a 1% methylcellulose solution was repeatedly orally administered to the Vehicle group and the Normal group, and a COMPOUND 2 solution and a Fenofibrate solution were repeatedly orally administered to the COMPOUND 2 group and the Fenofibrate group, respectively, once a day for 4 weeks.
The day after the end of the final administration, blood was collected from the posterior vena cava under non-fasting conditions and isoflurane inhalation anesthesia, and plasma was collected. Further, the liver was removed and a part thereof was cryopreserved. Plasma ALT was measured by the JSCC standardized method. Triglyceride (TG) in the liver was extracted from the liver with a chloroform/methanol mixed solution (2:1, v/v), evaporated to dryness, and dissolved in 2-propanol, and then the amount was measured using Triglyceride E Test Wako. The results were each expressed as a mean value±standard deviation. Significant difference was tested between the Normal group and the Vehicle group using the Welch's t test (unpaired) (#: p<0.05 and ###: p<0.001), and significant difference was tested among the Vehicle group and the test substance administration groups using the Dunnett's test (*: p<0.05, **: p<0.01, and ***: p<0.001).

[3] = test system: ZDF rats with low urinary pH; assay: Low urinary pH improving effect in diabetic model Zucker Diabetic Fatty (ZDF) rats; type: in vivo, ZDF (Lepr^fa/Lepr^fa) rats; details: 24 h urine, versus Vehicle group (FIG. 2)
Method: (1) Evaluation Using Diabetic Models, Zucker Diabetic Fatty (ZDF) Rats
In this example, the low urinary pH improving effect of COMPOUND 2 was evaluated using diabetic model animals; ZDF rats with low urinary pH. Verinurad; a known URAT1 inhibitor was evaluated as a comparative control compound (the PPARα activating effect of Verinurad was evaluated by the method described in Test Example 1, and as a result, the binding ratio at an evaluation concentration of 10 μM was 3.80%, and no effect was confirmed).
ZDF (Lepr^fa/Lepr^fa) rats (male, 7 weeks old at the start of administration, Charles River Laboratories Japan, Inc.) were divided into a Vehicle group, a COMPOUND 2 (25 mg/kg) group, a COMPOUND 2 (50 mg/kg) group, and a Verinurad (50 mg/kg) group so that there was no difference in body weight between the groups (n=5 in each of the groups). As a Lean group, ZDF (Lean) rats, i.e., control animals of ZDF (Lepr^fa/Lepr^fa) rats, were used (n=5). The administration volume was 10 mL/kg, a 1% methylcellulose solution was repeatedly orally administered to the Vehicle group and the Lean group, and a COMPOUND 2 solutions and a Verinurad solution were repeatedly orally administered to the COMPOUND 2 groups and the Verinurad group, respectively, once a day for 15 days.
During the administration period, the pH of a urine sample obtained by urine collection was measured using a compact pH meter (B-712, Horiba, Ltd.). Urine collection was performed 6 days before the start of administration (pre), on the 1st day, 7th day and 14th day of administration, and urine was collected in a metabolic cage for 24 hours. The results were each expressed as a mean value±standard deviation. At each time point, significant difference was tested between the Lean group and the Vehicle group using the Student's t test (unpaired) (###: p<0.001). After one-way analysis of variance, significant difference was tested among the Vehicle group and the test substance administration groups using the Dunnett's test (*: p<0.05, **: p<0.01, and ***: p<0.001).

[4] = 50 mg/kg oral once a day for 4 weeks
[5] = 50 mg/kg oral once a day for 15 days
[6] = 100 mg/kg oral once a day for 4 weeks

Row | Compound | activation at 10 µM [1] | further results
1 | CC(C)(Sc1ccc2ncsc2c1-c1ccc(C#N)cc1)C(=O)O [COMPOUND 1, 2-[[7-(4-cyanophenyl)benzo[d]thiazol-6-yl]thio]-2-methylpropanoic acid] | 49.2% | 
2 | CC(C)(Sc1ccc2cnsc2c1-c1ccc(C#N)cc1)C(=O)O [COMPOUND 2, 2-[[7-(4-cyanophenyl)benzo[d]isothiazol-6-yl]thio]-2-methylpropanoic acid] | 69.8% | Plasma ALT as an indicator of liver damage [2, 4]: significantly lower values than the Vehicle group; Liver TG level as an indicator of fatty liver [2, 4]: significantly lower; Urine pH ([3]; 25 mg/kg oral once a day for 15 days): significantly increased from the 7th day of administration; Urine pH [3, 5]: significantly increased from the 1st day of administration
3 | CC(C)(Oc1cc2ncsc2cc1-c1ccc(C#N)cc1)C(=O)O [COMPOUND 3, 2-[[6-(4-cyanophenyl)benzo[d]thiazol-5-yl]oxy]-2-methylpropanoic acid] | 16% | 
4 | CC(C)(Sc1ccc2ccccc2c1-c1ccc(C#N)cc1)C(=O)O [COMPOUND 4, 2-[[1-(4-cyanophenyl)naphthalen-2-yl]thio]-2-methylpropanoic acid] | 52.6% | 
5 | Cc1nsc2c(-c3ccc(C#N)cc3)c(SC(C)(C)C(=O)O)ccc12 [COMPOUND 5, 2-[[7-(4-cyanophenyl)-3-methylbenzo[d]isothiazol-6-yl]thio]-2-methyl propanoic acid] | 41.8% | 
6 | CC(C)(Sc1ccc2nc(C(F)(F)F)sc2c1-c1ccc(C#N)cc1)C(=O)O [COMPOUND 6, 2-[[7-(4-cyanophenyl)-2-(trifluoromethyl)benzo[d]thiazol-6-yl]thio]-2-methylpropanoic acid] | 24.7% | 
7 | Cc1nc2ccc(SC(C)(C)C(=O)O)c(-c3ccc(C#N)cc3)c2s1 [COMPOUND 7, 2-[[7-(4-cyanophenyl)-2-methylbenzo[d]thiazol-6-yl]thio]-2-methylpropanoic acid] | 47% | 
8 | N#Cc1ccc(-c2c(SC3(C(=O)O)CCC3)ccc3cnsc23)cc1 [COMPOUND 8, 1-[[7-(4-cyanophenyl)benzo[d]isothiazol-6-yl]thio]cyclobutan-1-carboxylic acid] | 29.9% | 
9 | CC(C)(Sc1ccc2cnsc2c1-c1ccc(C(F)(F)F)cc1)C(=O)O [COMPOUND 9, 2-methyl-2-[[7-[4-(tri-fluoromethyl)phenyl]benzo[d]iso-thiazol-6-yl]thio]propanoic acid] | 87% | 
10 | CC(C)(Sc1cc(F)c2cnsc2c1-c1ccc(C#N)cc1)C(=O)O [COMPOUND 10, 2-[[7-(4-cyanophenyl)-4-fluorobenzo[d]isothiazol-6-yl]thio]-2-methylpropanoic acid] | 71.3% | 
11 | N#Cc1ccc(-c2c(SC3(C(=O)O)CCCC3)ccc3cnsc23)cc1 [COMPOUND 11, 1-[[7-(4-cyanophenyl)benzo[d]isothiazol-6-yl]thio]cyclopentan-1-carboxylic acid] | 21.7% | 
12 | CC(C)(Sc1ccc2cnsc2c1-c1ccc(Cl)cc1)C(=O)O [COMPOUND 12, 2-[[7-(4-chlorophenyl)benzo[d]isothiazol-6-yl]thio]-2-methylpropanoic acid] | 92.6% | 
13 | Cc1cc(-c2c(SC(C)(C)C(=O)O)ccc3cnsc23)ccc1C#N [COMPOUND 13, 2-[[7-(4-cyano-3-methylphenyl)benzo[d]isothiazol-6-yl]thio]-2-methylpropanoic acid] | 20.8% | 
14 | Cc1nsc2c(-c3ccc(C#N)cc3)c(SC3(C(=O)O)CCC3)ccc12 [COMPOUND 14, 1-[[7-(4-cyanophenyl)-3-methylbenzo[d]isothiazol-6-yl]thio]cyclobutan-1-carboxylic acid] | 26.5% | 
15 | CCC(CC)(Sc1ccc2cnsc2c1-c1ccc(C#N)cc1)C(=O)O [COMPOUND 15, 2-[[7-(4-cyanophenyl)benzo[d]isothiazol-6-yl]thio]-2-ethylbutanoic acid] | 59% | 
16 | CC(C)(C)C(Sc1ccc2cnsc2c1-c1ccc(C#N)cc1)C(=O)O (stereo not shown) [COMPOUND 16, 2-[[7-(4-cyanophenyl)benzo[d]isothiazol-6-yl]thio]-3,3-dimethylbutanoic acid] | 11.8% | 
17 | CC(C)(Oc1ccc(C(=O)c2ccc(Cl)cc2)cc1)C(=O)O [Fenofibric acid, 2-[4-(4-chlorobenzoyl)phenoxy]-2-methylpropionic acid, reference compound] |  | Binding ratio (%) @ 10 μM [1]: 50.46%
18 | CC(C)(Sc1ccncc1-c1ccc(C#N)c2ccccc12)C(=O)O [Verinurad, reference compound] | 3.8% | Urine pH [3, 5]: no low urinary pH improving effect was observed throughout the administration period
19 | fenofibrate [reference compound] |  | Plasma ALT as an indicator of liver damage [2, 6]: significantly lower values than the Vehicle group; Liver TG level as an indicator of fatty liver [2, 6]: significantly lower
